Results taken from patent publication US20250066310A1, “MULTI-SUBSTITUTED URACIL DERIVATIVE AND PREPARATION METHOD THEREFOR AND APPLICATION THEREOF” (HANGZHOU ADAMERCK PHARMLABS INC., priority 2021, published 2025).
Marks after values point to notes of the source that are not given here.

Tests used:
[1] = test system: rats with focal permanent cerebral ischemia (MCAO); experiment: Focal permanent cerebral ischemic injury (MCAO), administration from 3 h post-ischemia; assay type: in vivo, SD rats
[2] = test system: mice injected with ellagic acid via the tail vein; experiment: Effect on in vivo clotting time in mice (ellagic acid tail vein injection); details: Mus musculus, iv, 100 mg/kg i.g. for 4 days, ellagic acid i.v. 1 h after last dose, vs model group, read-out: Clotting time prolongation (%)
Method: The control and model groups were gavaged with distilled water, and the positive clopidogrel group, and the test substance group were gavaged orally (i.g.) with drug solution in a volume of 0.1 mL/10 g for 4 consecutive days. 1 h after the last administration, all groups were injected with 0.15 mL/10 g of 0.3% ellagic acid solution via tail vein injection except for the blank group which was injected with physiological saline: 0.1 ml/10 g. After 5 min, glass capillaries were used for blood collection through the retro-orbital venous plexus, and the appearance time of coagulation filaments was recorded by glass capillaries at 10-second intervals.
Calculation equation for prolongation of clotting time:
Prolongation of clotting time (%)=[(mean value of clotting time in blank or administered group/mean value of clotting time in model group)−1]×100%

[3] = test system: ICR mice; experiment: Effect on in vivo bleeding time in mice (tail cut)
Method: A normal control group (blank), positive control group (clopidogrel) and experimental groups were set up with 10 ICR mice (male, weighed about 25 g) in each group. Animals in each group were administered the corresponding drug solution by oral gavage (i.g.) at 0.1 ml/10 g body weight, and the blank control group was given distilled water, once daily for 4 days. On the 4th day, 1 h after the administration of the drug, the animals were anesthetized by intraperitoneal injection of sodium barbiturate at a dose of about 50 mg/kg, and 20 min later, the tails of the mice were cut at a distance of 3 mm from the tip of the tail, and at regular intervals, absorbent paper was used to dip the blood at the severed tails until no blood exuded, which was recorded as the bleeding time, and the results of the experiment were shown in Table 2.
Calculation equation for prolongation of bleeding time: […]

[4] = test system: rats with myocardial ischemia-reperfusion injury; experiment: Myocardial ischemia-reperfusion injury caused by coronary artery ligation in rats; assay type: in vivo; details: x ± s, n = 8
Method: Experimental Methods: A model of myocardial ischemia/reperfusion (MI/R) injury caused by coronary artery ligation was established in rats, and animals were grouped into high-dose (20 mg/kg), medium-dose (10 mg/kg), low-dose (5 mg/kg) of the test drug, clopidogrel (7.5 mg/kg), sham, and model groups. Equal volume of 0.5% CMC-Na was administered at 0.5 ml/100 g body weight in both sham and model groups. The drug was administered by gavage (i.g.) once a day for 5 consecutive days. Modeling was performed 30 min after the last administration, and after modeling, 8 successfully modeled rats were selected from each group for subsequent experiments. The sham group was placed a wire under the left anterior descending branch of the coronary artery according to the model preparation method without ligation, and the other groups were modeled according to the model preparation method. The effects of the test drugs on the cardiac infarction rate and the biochemical indexes of creatine kinase (CK), lactate dehydrogenase (LDH), malondialdehyde (MDA), and superoxide dismutase (SOD) in plasma were detected, and TTC staining of the heart was performed to detect the effects of the test drugs on the area of myocardial infarction in MI/R rats.

[5] = test system: acute inflammatory response caused by ellagic acid (serum cytokines); experiment: Antibody microarray detection of serum factors in ellagic acid model mice; assay type: in vivo, ICR mice; parameters: TNFa / IL-6 / IL-1b / IL-5 / IL-13 / IL-1α / IL-1β / IL-2 / IL-3 / IL-4 / IFNg / CD40: unit not given here
Method: Experimental methods: ICR male mice, weighed about 25 g, were randomly divided into four groups: normal group, ellagic acid model group, 1-1 group, and 1-22 group, with four mice in each group. Mice in 1-1 group and 1-22 group were given 1-1, 100 mg/kg and 1-22, 100 mg/kg by gavage once a day respectively. 1 h after the third administration, except for the normal control group, the other three groups of mice were injected into the tail vein with 0.10 mL/10 g of 0.3% ellagic acid saline solution, and 1 h after injection, whole blood was collected from each animal, and centrifuged (3,000 rpm/min) for 10 min after 30 min of standing, and then centrifuged to obtain the serum. The serum from each group of animal was mixed in an EP tube, transported at −80° C., and sent for antibody microarray detection.

[6] = 100 mg/kg i.g. once daily for 4 days
[7] = Table 16, pooled serum, 100 mg/kg by gavage
[8] = Table 17, pooled serum, 100 mg/kg by gavage
[9] = Table 18, pooled serum, 100 mg/kg by gavage
[10] = Table 19, pooled serum, 100 mg/kg by gavage

Compound	change in vivo at 100 mg/kg [2] [%]	Bleeding time prolongation (%) [3, 6] [%]	further results
CCCCC1OC(=O)c2ccccc21 (centres unmarked) [Butylphthalide, butylphthalide, reference compound]	–	–	Number of survivors after 15 days animal ([1]; 60 mg/kg by gavage once a day, 15 enrolled): 7; Mortality (%) ([1]; 15-day, 60 mg/kg by gavage): 53.33%; Neurological function score on day 15 ([1]; Bederson's method, 60 mg/kg): 1.25; Weight on day 1 ([1]; mean body weight, 60 mg/kg): 281.00 g; Weight on day 5 ([1]; mean body weight, 60 mg/kg): 234.27 g; Weight on day 15 ([1]; mean body weight, 60 mg/kg): 276.75 g
COC(=O)[C@H](c1ccccc1Cl)N1CCc2sccc2C1 [Clopidogrel, clopidogrel, reference compound]	36.8	–	Bleeding time prolongation (%) ([3]; 15 mg/kg i.g. once daily for 4 days): >579.89%; Cardiac infarction rate (%) ([4]; 7.5 mg/kg i.g. once a day for 5 days): 14.29 ± 6.82 %; Pathological Score ([4]; myocardium, 7.5 mg/kg i.g.): 1.88 ± 0.64; CK (U/mL) ([4]; plasma, 7.5 mg/kg i.g.): 0.32 ± 0.20 U/mL; LDH (U/L) ([4]; plasma, 7.5 mg/kg i.g.): 8522.72 ± 626.17 U/L; MDA ([4]; plasma, 7.5 mg/kg i.g.): 15.90 ± 1.37 nmol/mL; SOD (U/mL) ([4]; plasma, 7.5 mg/kg i.g.): 40.92 ± 1.67 U/mL
CC(C)OC(=O)CCNC(=O)CCNc1cc(=O)n(C)c(=O)n1C [Compound 1-2]	49.9	6.50	–
Cn1c(NCCC(=O)NCCC(=O)OC2CC3CCC2(C)C3(C)C)cc(=O)n(C)c1=O (centres unmarked) [Compound 1-4]	39.7	16.40	–
Cn1c(NCCC(=O)NCCC(=O)OC2CC2)cc(=O)n(C)c1=O [Compound 1-5]	41.9	−13.60	–
Cn1c(NCCC(=O)NCCC(=O)OC2CCCCC2)cc(=O)n(C)c1=O [Compound 1-6]	42.4	4.80	–
Cn1c(NCCC(=O)NCCC(=O)Oc2ccccc2)cc(=O)n(C)c1=O [Compound 1-7]	41.7	15.10	–
Cc1cccc(C)c1OC(=O)CCNC(=O)CCNc1cc(=O)n(C)c(=S)n1C [Compound 1-11]	39.3	20.60	–
CC(C)OC(=O)CCNC(=O)CCNc1cc(=O)n(C)c(=O)n1Cc1cc(F)ccc1C#N [Compound 1-13]	39.8	15.60	–
Cn1c(=O)cc(NCCC(=O)NCCC(=O)Oc2ccccc2)n(Cc2cc(F)ccc2C#N)c1=O [Compound 1-15]	42	−4.70	–
CC1CCC(C(C)C)C(OC(=O)CCNC(=O)CCNc2cc(=O)n(C)c(=O)n2Cc2cc(F)ccc2C#N)C1 (centres unmarked) [Compound 1-16]	38	11.00	–
CCOC(=O)CCNC(=O)CCNc1cc(=O)n(C)c(=O)n1Cc1ccccc1C#N [Compound 1-17]	44.1	−6.20	–
CCOC(=O)CCNC(=O)CCNc1cc(=O)n(C)c(=O)n1Cc1cc(F)ccc1C#N [Compound 1-18]	42.9	13.30	–
Cc1cccc(C)c1OC(=O)CCNC(=O)CCNc1cc(=O)n(C)c(=O)n1Cc1cc(F)ccc1C#N [Compound 1-19]	60.4	−38.00	–
CCOC(=O)CCNC(=O)[C@H](Nc1cc(=O)n(C)c(=O)n1C)C(C)CC (some centres unmarked) [Compound 1-22]	40.7	19.83	IL-6 [5, 7]: 10,273.27*; RANTES/ccl5 [5, 7]: 1,909.28*; TNFa [5, 7]: 290.22*; IL-1b ([5]; Table 16, pooled serum, 100 mg/kg by gavage once a day x3, 1 h after ellagic acid): 268.76*; IL-1α [5, 8]: 837.49*; IL-1β [5, 8]: 268.76*; IL-2 [5, 8]: 464.49; IL-3 [5, 8]: 872.26*; IL-4 [5, 8]: 961.11*; IL-5 [5, 8]: 227.55*; IL-6 [5, 8]: 10,273.27*; IL-13 [5, 8]: 620.73*; Eotaxin/CCL11 [5, 9]: 3,096.53*; MCP1/CCL2 [5, 9]: 2,231.63*; MIP-3a/CCL20 [5, 9]: 1,252.13*; RANTES/CCL5 [5, 9]: 1,909.28*; CD40 [5, 10]: 509.56*; IFNg [5, 10]: 218.11*; number of down-regulated differential proteins ([5]; interleukin factors (Table 17), compared with the model group): seven
CCOC(=O)CCCCCNC(=O)CCCCCNc1cc(=O)n(C)c(=O)n1C [Compound 1-23]	38.1	−19.20	–
Cn1c(NCCCCCC(=O)NCCCCCC(=O)O)cc(=O)n(C)c1=O [Compound 1-24]	36.7	20.60	–
CC(C)OC(=O)CCNC(=O)CCNc1cc(=O)n(Cc2ccccc2)c(=O)n1Cc1ccccc1 [Compound 1-26]	40.4	−13.30	–
CC(C)OC(=O)CCNC(=O)CCNc1cc(=O)n(C)c(=O)n1Cc1cccnc1 [Compound 1-27]	39.5	23.50	–
Cn1c(=O)cc(NCCC(=O)NCCC(=O)Oc2ccccc2)n(Cc2ccccc2)c1=O [Compound 1-30]	39.8	−9.70	–
CC1CCC(C(C)C)C(OC(=O)CCNC(=O)CCNc2cc(=O)n(C)c(=O)n2Cc2cccnc2)C1 (centres unmarked) [Compound 1-32]	48.4	−9.00	–
CC(C)OC(=O)CCNC(=O)CCNc1cc(=O)n(Cc2cccnc2)c(=O)n1Cc1cccnc1 [Compound 1-34]	53.5	−2.10	–
CCOC(=O)CCNC(=O)[C@@H](Nc1cc(=O)n(C)c(=O)n1C)C(C)CC (some centres unmarked) [Compound 1-37]	32.6	48.80	–
CCOC(=O)CCCCCNC(=O)CCCCCNc1cc(=O)[nH]c(=O)[nH]1 [Compound 1-38]	37.5	28.40	–
CCOC(=O)CCNC(=O)CCNc1cc(=O)[nH]c(=N)[nH]1 [Compound 1-39]	37.2	16.90	–
CCOC(=O)[C@H](NC(=O)CCNc1cc(=O)n(C)c(=O)n1C)C(C)C [Compound 1-42]	41.4	−13.40	–
CC(C)OC(=O)CCNC(=O)CCN(C)c1cc(=O)n(C)c(=O)n1Cc1cc(F)ccc1C#N [Compound 1-45]	43.1	18.60	–
CCOC(=O)CCCCNC(=O)CCCCNC(=O)CCCCNc1cc(=O)n(C)c(=O)n1C [Compound 1-48]	38.6	26.40	–
CCOC(=O)CCNC(=O)CCNc1cc(=O)n(C2CCCC2)c(=O)n1C1CCCC1 [Compound 1-54]	37.2	13.00	–
CCOC(=O)CCNC(=O)CCNc1cc(=O)n(Cc2cccnc2)c(=O)n1Cc1cccnc1 [Compound 1-55]	38.6	−3.10	–
